How the values were obtained:
[1] = Lactone ring stability in human plasma by HPLC; assay type: in vitro ADME; details: 3 hours, 37° C., pH 7.5, 1 μM
Description: FIG. 13 depicts the improved stabilities of four novel homosilatecans of the current invention following incubation in PBS containing 30 mg/ml human serum albumin at 37° C. […] All the experiments of FIG. 14 were conducted in human plasma at 37° C. Plasma samples were continuously aerated by a stream of blood gas resulting in the maintenance of pH at values of 7.5±0.1.
(§1) HPLC solvents were from Fisher Scientific.
To characterize the stabilities of the novel silatecans of interest in human plasma, frozen plasma was incubated at 37° C. in order to thaw. Blood gas was bubbled through the plasma to adjust the pH close to 7.5. […] The samples were then allowed to incubate further at 37° C. […] Tubes were vortexed for 10 sec and centrifuged in a tabletop microcentrifuge at 8000 rpm for 45 sec. […] The sample was analyzed by HPLC as soon as possible. The data analysis was as described for drug in PBS only samples as described above. Blood gas was continuously bubbled through the plasma samples to pH at 7.5+/−[…].

[2] = Fluorescence anisotropy titration, equilibrium binding to DMPG small unilamellar vesicles; assay type: physicochemical; details: negatively charged DMPG vesicles, PBS pH 7.4, 37° C.; K values subject to 10% uncertainty
Description: As a consequence of the brilliant fluorescence emissions from the newly synthesized homosilatecans (a summary of the spectral parameters can be found in Table 1), the lipid bilayer adsorption isotherms summarized in FIG. 4 were relatively free from any background signal. The method of fluorescence anisotropy titration was used to construct the adsorption isotherms. The experiments were conducted at drug concentrations of 1 μM in PBS buffer (37° C.). […] Because of the potential of the lactone ring of the homosilatecans and camptothecins to hydrolyze in PBS, anisotropy values at each lipid concentration were determined immediately (approx. 1 min.) following the addition of the lactone form of each agent to the liposome suspension as to minimize any possibility of conversion to the carboxylate form. Using drug concentrations of 1 μM and long pass filters to isolate emitted light from background signal (that is, scattered exciting light and extraneous fluorescence signal resulting from the possible presence of impurities), signal levels from drugs dissolved in PBS buffer were typically 99.97% in the absence of membrane and greater than 98% in the presence of membrane. Adsorption isotherms were used to determine overall association constants for the homosilatecan, silatecan, and camptothecin drugs. Overall association constants are defined as: K=[AB]/[AF][L] where [AB] represents the concentration of bound drug, [AF] represents the concentration of free drug, and [L] represents the total lipid concentration in the vesicle suspension. This equation is valid when the concentration of free lipid is approximately equal to the concentration of total lipid (that is, the concentration of free lipid is in significant excess over the concentration of bound drug). Provided this condition is satisfied, K may be determined from the inverse of the slope of a double reciprocal plot. In such a double reciprocal plot, 1/fraction of the total drug bound is plotted vs. 1/lipid concentration, with a y-intercept value of 1 (for a system displaying binding site homogeneity). Such double-reciprocal plots for the associations of the new homosilatecans analogs (both lactone and carboxylate forms) with DMPC and DMPG small unilamellar vesicle (SUV) preparations were linear with good correlation coefficients.
The studies summarized in Table 2 examine the structural basis of homosilatecan associations for lipid bilayers. Two types of membranes were included in these studies which were conducted under near physiological conditions of pH and temperature; these membranes include fluid-phase and electroneutral L-α-dimyristoylphosphatidyl-choline (DMPC); and fluid-phase and negatively-charged L-α-dimyristoylphosphatidylglycerol (DMPG). DMPC and DMPG have identical chain length but the charges on their head groups differ.
In the studies of Table 2, binding isotherms were constructed using the method of fluorescence anisotropy titration as discussed above, and K values were determined from the slopes of the double-reciprocal plots. The K values are subject to 10% uncertainty. One of the most striking features of the data contained in Table 2 is the strong modulation which can be achieved through the creation of A,B,E-ring modified camptothecins (for example, the homosilatecans known as DB-38, DB-90, and DB-91) or B,E-ring modified camptothecins (for example, the homosilatecan known as DB-81). Homosilatecans containing either a sole substitution at the 7 position or dual substitution at the 7 and 10 positions have been created and found to display very high lipophilicities. Included in Table 2 are camptothecin compounds (topotecan and camptothecin). For DB-81, the lipophilicity for DMPC membranes relative to corresponding value for topotecan increases over 1,400-fold. Data for these agents were included to show the highly lipophilic nature of the new homocamptothecins relative to compounds such as topotecan and camptothecin. […]

[3] = Lactone ring stability in PBS suspensions of albumin-free red blood cells by HPLC; assay type: in vitro ADME, human; details: albumin-free RBC in PBS (5±1)×10^6 cell/μL, 37° C.
Description: FIG. 15 depicts the stabilities of four novel homosilatecans of the current invention in PBS suspensions containing physiologically-relevant concentrations [(5±1)×10^6 cell/μL] of albumin-free red blood cells. Stability characteristics were determined at 37° C. using HPLC methods.
as §1
To study the stabilities of the novel homosilatecans in the presence of physiologically relevant concentrations of red blood cells (RBC), the following experiments were performed. Packed Red blood cells obtained from the Central Kentucky Red Cross and were counted using a Coulter Cell Counter. The number of cells was adjusted to 5×10^12 Cells/L using PBS, pH 7.4 and incubated at 37° C. for 30 min. […] RBCs were incubated at 37° C. for 30 min and the pH remeasured to ensure that it was within the same range as before the assays were started. […] Aliquots of drug in DMSO were added to RBC suspensions in PBS to result in final drug concentration of 1 μM. […] The sample was analyzed on HPLC as soon as possible.

SMILES | % Lactone [1] [%] | KDMPG overall association constant [2] [M⁻¹] | % Lactone ([3]; 3 hours) [%] | % Lactone ([3]; 24 hours) [%]
CCC1(O)CC(=O)OCc2c1cc1n(c2=O)Cc2c-1nc1ccc(N)cc1c2[Si](C)(C)C (racemic) [DB-38, 5-Ethyl-1,4,5,13-tetrahydro-5-hydroxy-10-amino-12-trimethylsilyl-3H,15H-oxepino[3′,4′:6,7]indolizino[1,2-b]quinoline-3,15-dione] | 40.3 ± 2.1 | 800 | 84.8 ± 1.5 | 39.4 ± 1.2
CCC1(O)CC(=O)OCc2c1cc1n(c2=O)Cc2c-1nc1ccccc1c2[Si](C)(C)C(C)(C)C (racemic) [DB-81, 5-Ethyl-1,4,5,13-tetrahydro-5-hydroxy-12-tert-butyldimethylsilyl-3H,15H-oxepino[3′,4′:6,7]indolizino[1,2-b]quinoline-3,15-dione] | 85.0 ± 4.3 | 18500 | 92.0 ± 0.0 | 55.8 ± 1.7
CCC1(O)CC(=O)OCc2c1cc1n(c2=O)Cc2c-1nc1ccc(N)cc1c2[Si](C)(C)C(C)(C)C (racemic) [DB-90, 5-Ethyl-1,4,5,13-tetrahydro-5-hydroxy-10-amino-12-tert-butyldimethylsilyl-3H,15H-oxepino[3′,4′:6,7]indolizino[1,2-b]quinoline-3,15-dione] | 71.1 ± 3.5 | 9300 | 85.5 ± 0.4 | 38.5 ± 1.4
CCC1(O)CC(=O)OCc2c1cc1n(c2=O)Cc2c-1nc1ccc(O)cc1c2[Si](C)(C)C(C)(C)C (racemic) [DB-91, 5-Ethyl-1,4,5,13-tetrahydro-5-hydroxy-10-hydroxy-12-tert-butyldimethylsilyl-3H,15H-oxepino[3′,4′:6,7]indolizino[1,2-b]quinoline-3,15-dione] | 61.5 ± 3.9 | 4300 | 88.5 ± 0.2 | 42.6 ± 2.6

— patent publication US7538220B2, “Intermediates in the preparation of homocamptothecin analogs” (University of Pittsburgh - of the Commonwealth System of …, priority 1999, dated 2009)
